Source: US20250059166A1, “PIPERIDINYLPYRIDINYLCARBONITRILE DERIVATIVES AS INHIBITORS OF GLUTAMINYL-PEPTIDE CYCLOTRANSFERASE AND GLUTAMINYL-PEPTIDE CYCLOTRANSFERASE LIKE PROTEIN” (Boehringer Ingelheim International GmbH, priority 2023, published 2025)

Legend:
QPCTL = biological target: T1, QPCTL (Homo sapiens, UniProt Q9NXS2); test: Assay A: biochemical QPCTL activity assay (MALDI-TOF MS, CD47 peptide substrate); details: compounds of the invention; 0.5 nM enzyme, 10 μM CD47 peptide substrate; read-out: Inhibition of QPCTL: IC50
T1 construct: made in house
T1 sequence (Q9NXS2 whole entry): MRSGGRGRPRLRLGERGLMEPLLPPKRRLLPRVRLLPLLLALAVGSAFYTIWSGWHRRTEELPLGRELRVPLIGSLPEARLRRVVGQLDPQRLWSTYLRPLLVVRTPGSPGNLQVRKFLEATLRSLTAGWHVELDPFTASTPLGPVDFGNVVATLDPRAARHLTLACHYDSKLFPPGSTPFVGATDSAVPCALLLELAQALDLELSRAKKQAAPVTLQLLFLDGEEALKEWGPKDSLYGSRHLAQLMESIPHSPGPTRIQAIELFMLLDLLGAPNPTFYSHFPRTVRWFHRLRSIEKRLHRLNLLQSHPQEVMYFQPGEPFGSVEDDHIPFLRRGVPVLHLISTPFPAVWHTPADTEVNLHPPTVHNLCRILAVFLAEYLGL
Experimental: (§1) QPCT or QPCTL dependent conversion of N-terminal glutamine to pyroglutamate of CD47 was monitored via MALDI-TOF MS. Test compounds were dissolved in 100% DMSO and serially diluted into clear 1,536-well microtiter plates. Enzymatic reactions were set up in assay buffer containing 20 mM Tris pH 7.5, 0.1 mM TCEP, 0.01% BSA, and 0.001% Tween20. […] The plates were incubated for 10 min in a humidified incubator at 24° C. Subsequently, 2.5 μL of CD47 peptide substrate surrogate (^19[…]^33) was added to each well (final concentration: 10 μM for QPCTL/20 μM for QPCT). The plates were mixed for 30 sec at 1,000 rpm and subsequently incubated for 40 min in a humidified incubator at 24° C. […] The plates were sealed with an adhesive foil, mixed for 30 s at 1,000 rpm and stored at room temperature until preparation of the MALDI target plates. […] QPCT or QPCTL activity was monitored by calculating the ratio between product and internal standard signals followed by normalization to high (100% activity) and low (0% activity) controls. Determination of compound potencies was obtained by fitting the dose-response data to a four-parameter logistical equation.

[1] = Assay C: permeability in CACO-2 cells; format: in vitro ADME; details: human, pH 7.2, compounds of the invention; for efflux ratio at 2 h: Caco-2, permeability B-A / permeability A-B; for Papp A→B at 2 h: Caco-2, apical to basolateral
Experimental: Caco-2 cells (1-2×10^5 cells/1 cm^2 area) are seeded on filter inserts (Costar transwell polycarbonate or PET filters, 0.4 μm pore size) and cultured (DMEM) for 10 to 25 days. Compounds are dissolved in appropriate solvent (like DMSO, 1-20 mM stock solutions). […] The transport solution (TL) is applied to the apical or basolateral donor side for measuring A-B or B-A permeability (3 filter replicates), respectively. Samples are collected at the start and end of experiment from the donor and at various time intervals for up to 2 hours also from the receiver side for concentration measurement by HPLC-MS/MS or scintillation counting. Sampled receiver volumes are replaced with fresh receiver solution.
Efflux ratio(ER)=permeabilityB−A/permeabilityA−B

[2] = tested on: SIRPα signalling induced by A549 cells; test: Assay B: SIRPα signalling assay using A549 cells; format: cell-based; details: Homo sapiens; compounds of the invention; A549 cells 48 h, Jurkat PathHunter SIRPαV1 reporter cells 5 h; read-out: Inhibition of SIRPα signalling induced by A549 cells: IC50
Experimental: (§2) Two cell types are independently used: the Raji cell line (lymphoblast-like human cell line derived from B lymphocytes from a Burkitt's lymphoma patient in 1963) and A549 cells (adenocarcinoma human alveolar basal epithelial cells).
(§3) Test compounds were dissolved in 100% DMSO and serially diluted into a white 384-well microtiter cell culture plate (PerkinElmer #60076780 in case of Raji assay; PDL-coated plates Greiner #781945 in case of A549 assay). 5000 Raji cells (ATCC #CC86) or 5000 A549 cells (ATCC #CCL-185) in Assay Complete Cell Plating reagent 30 (DiscoverX 93-0563R30B) were added per well. The assay plate was incubated for 48 h at 37° C., 95% humidity and 5% CO2. 15000 reporter cells (Jurkat PathHunter SIRPαV1, DiscoverX #93-1135C19) were added to each well, and the plate was incubated for 5 h at 37° C., 95% humidity and 5% CO2. Bioassay reagent 1 of the PathHunter Bioassay detection kit (DiscoverX 93-0001) was added to each well of the plate using a multichannel pipette followed by a 15 min incubation at room temperature. Afterwards bioassay reagent 2 was added followed by 60 min incubation at room temperature (incubation in the dark).
(§4) The analysis of the data was performed using the luminescence signal generated by beta-galactosidase in the PathHunter reporter cell line. The luminescence measurement was done using a Pherastar Multi-Mode Reader. Dose-response curves & IC50 data were calculated with 4-parameter sigmoidal dose response formula.

[3] = tested on: SIRPα signalling induced by Raji cells; test: Assay B: SIRPα signalling assay using Raji cells; format: cell-based; details: Homo sapiens; compounds of the invention; Raji cells 48 h, Jurkat PathHunter SIRPαV1 reporter cells 5 h; read-out: Inhibition of SIRPα signalling induced by Raji cells: IC50
Experimental: as §2, §3, §4

QPCT = biological target: T2, QPCT (Homo sapiens, UniProt Q16769); test: Assay A: biochemical QPCT activity assay (MALDI-TOF MS, CD47 peptide substrate); details: compounds of the invention; 0.5 nM enzyme, 20 μM CD47 peptide substrate; read-out: Inhibition of QPCT: IC50
T2 construct: purchased Origine (so in the source)
T2 sequence (Q16769 29-361): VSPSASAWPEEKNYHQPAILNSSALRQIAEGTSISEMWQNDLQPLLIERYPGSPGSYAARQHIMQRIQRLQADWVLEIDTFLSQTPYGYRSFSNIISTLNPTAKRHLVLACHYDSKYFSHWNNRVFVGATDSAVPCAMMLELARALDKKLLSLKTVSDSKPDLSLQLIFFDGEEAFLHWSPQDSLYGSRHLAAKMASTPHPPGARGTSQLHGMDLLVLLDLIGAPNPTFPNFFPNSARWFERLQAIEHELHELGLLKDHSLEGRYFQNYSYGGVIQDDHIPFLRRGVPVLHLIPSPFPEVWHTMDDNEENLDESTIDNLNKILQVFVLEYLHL
Experimental: as §1

Row | SMILES | IC50 (QPCTL) | efflux ratio at 2 h [1] | Papp A→B at 2 h [1] | IC50 [2] | IC50 [3] | IC50 (QPCT)
1 | Cn1cnnc1C1(F)CCN(c2c(C#N)ccnc2-c2cnc(F)cc2Cl)CC1 [Example 22] | 5 nM | 1.6 | 34 ×10⁻⁶ cm/s | 218 nM | 435 nM | 15 nM
2 | Cn1cnnc1C1(F)CCN(c2c(C#N)ccnc2-n2cnc3nc(C(F)(F)F)ccc32)CC1 [Example 24] | 7 nM | 14.1 | 1 ×10⁻⁶ cm/s | 349 nM | 321 nM | 11 nM
3 | Cc1cc(C#N)c(N2CCC(F)(c3nncn3C)CC2)c(-c2cnc3nn(C(C)(C)C)c(F)c3c2)n1 [Example 25] | 1 nM | 9.9 | 7.6 ×10⁻⁶ cm/s | 7 nM | 9 nM | 1 nM
4 | Cc1cc(C#N)c(N2CCC(F)(c3nncn3C)CC2)c(-c2cnc3nn(C(C)(C)C)c(Cl)c3c2)n1 [Example 26] | < 1 nM | 4.2 | 20 ×10⁻⁶ cm/s | 13 nM | 6 nM | < 1 nM
5 | Cc1cc(C#N)c(N2CCC(F)(c3nncn3C)CC2)c(-c2cnc3nn(C(C)(C)C)c(C(F)(F)F)c3c2)n1 [Example 27] | 2 nM | 2.4 | 38 ×10⁻⁶ cm/s | 34 nM | 26 nM | 2 nM
6 | Cn1cnnc1C1(F)CCN(c2c(C#N)cc(C3CC3)nc2-c2cnc3nn(C(C)(C)C)cc3c2)CC1 [Example 28] | 1 nM | 3.8 | 19 ×10⁻⁶ cm/s | 12 nM | 7 nM | < 1 nM
7 | Cn1cnnc1C1(F)CCN(c2c(C#N)cc(C3CC3)nc2-c2cnc3nn(C(C)(C)C)c(F)c3c2)CC1 [Example 29] | 1 nM | 2.7 | 29 ×10⁻⁶ cm/s | 45 nM | 17 nM | 1 nM
8 | CC(C)n1nc2ncc(-c3nc(C4CC4)cc(C#N)c3N3CCC(F)(c4nncn4C)CC3)cc2c1F [Example 30] | 1 nM | 9.4 | 9.4 ×10⁻⁶ cm/s | 20 nM | 25 nM | 1 nM
9 | Cn1cnnc1C1(F)CCN(c2c(C#N)cc(C3CC3)nc2-c2ccc(F)nc2)CC1 [Example 31] | 2 nM | 1.4 | 62 ×10⁻⁶ cm/s | 41 nM | 87 nM | 4 nM
10 | Cn1cnnc1C1(F)CCN(c2c(C#N)cc(C(C)(F)F)nc2-c2cnc3nn(C(C)(C)C)cc3c2)CC1 [Example 32] | 1 nM | 8.2 | 8.2 ×10⁻⁶ cm/s | 21 nM | 4 nM | 1 nM
11 | Cn1cnnc1C1(F)CCN(c2c(C#N)cc(C(C)(F)F)nc2-c2cnc3nn(C(C)(C)C)c(F)c3c2)CC1 [Example 33] | 1 nM | 2.2 | 31 ×10⁻⁶ cm/s | 26 nM | 13 nM | 1 nM
12 | Cn1cnnc1C1(F)CCN(c2c(C#N)cc(C(C)(F)F)nc2-c2ccc(F)nc2)CC1 [Example 34] | 2 nM | 1.7 | 23 ×10⁻⁶ cm/s | 20 nM | 37 nM | 6 nM
13 | Cn1cnnc1C1(F)CCN(c2c(C#N)cc(C(F)F)nc2-c2ccc(F)nc2)CC1 [Example 35] | 3 nM | 3.6 | 17 ×10⁻⁶ cm/s | 43 nM | 154 nM | 10 nM
14 | Cn1cnnc1C1(F)CCN(c2c(C#N)cc(Cl)nc2-c2cnc3nn(C(C)(C)C)cc3c2)CC1 [Example 36] | 1 nM | 13.3 | 5.8 ×10⁻⁶ cm/s | 13 nM | 9 nM | < 1 nM
15 | Cn1cnnc1C1(F)CCN(c2c(C#N)cc(Cl)nc2-c2ccc(F)nc2)CC1 [Example 37] | 2 nM | 2.2 | 23 ×10⁻⁶ cm/s | 35 nM | 95 nM | 6 nM
16 | Cn1cnnc1C1(F)CCN(c2c(-c3cnc4nn(C(C)(C)C)cc4c3)ncc(Cl)c2C#N)CC1 [Example 38] | 1 nM | 10.9 | 6.6 ×10⁻⁶ cm/s | 6 nM | 21 nM | < 1 nM
17 | Cn1cnnc1C1(F)CCN(c2c(-c3ccc(F)nc3)ncc(Cl)c2C#N)CC1 [Example 39] | 3 nM | 2.9 | 16 ×10⁻⁶ cm/s | 106 nM | 247 nM | 6 nM
18 | Cn1cnnc1C1(F)CCN(c2c(-c3ccc(F)nc3)ncc(C(F)(F)F)c2C#N)CC1 [Example 40] | 4 nM | 2.8 | 18 ×10⁻⁶ cm/s | 115 nM | 258 nM | 5 nM
19 | Cc1cnc(-c2ccc(F)nc2)c(N2CCC(F)(c3nncn3C)CC2)c1C#N [Example 41] | 1 nM | 2.6 | 28 ×10⁻⁶ cm/s | 16 nM | 71 nM | 2 nM
